In general, IC50 refers to the concentration that gives 50% inhibition. A lower IC50 goes with greater potency in that assay.

The first assay relates to AKT protein phosphorylated on serine 473 (P-AKT-S473) in PC3 human prostate carcinoma cells. As to the kind of experiment: pAKT expression in PC3 human prostate carcinoma cells, MSD Multi-spot Biomarker detection (Test A). It is filed as cell-based. The following applies: Homo sapiens, PC-3, PC3 cells, 1 to 2 h incubation, P-AKT-S473, absolute IC50, mean of two independent experiments. The method, then:
The inhibitory activity of the molecules on AKT phosphorylation is measured using the MSD Multi-spot Biomarker detection technique from Meso Scale Discovery also described below. […] The primary antibody specific for […]) is coated on to an electrode in each well of the 96-well plates of the MSD kit: after the addition of a protein lysate to each well, the signal is visualized by adding a secondary detection antibody labeled with an electrochemiluminescent compound. The procedure followed is the one described in the kit. […] On day 2, the cells are incubated in the presence or absence of the test products for 1 to 2 h at 37° C. in the presence of 5% CO2. The molecules, diluted in dimethyl sulfoxide (DMSO Sigma #D2650), are added from a 20-times concentrated stock solution, the final percentage of DMSO being 0.1%. The molecules are tested either at a single concentration of less than or equal to 10 μM, or at increasing concentrations in a range that can extend from less than 1 nM to 10 μM. After this incubation, the cells are lysed for the preparation of the proteins. […] At this stage, the plates containing the lysates can be frozen at -20° C. or at -80° C. The wells of the 96 well plates of the MSD kit are saturated for 1 h at ambient temperature with the blocking solution of the MSD kit. Four washes are carried out with 150 μl of Tris Wash Buffer of the MSD kit. The lysates previously prepared are transferred into the 96-well multi-spot plates of the MSD kit and incubated for 1 h at ambient temperature, with shaking. Four washes are carried out with 150 μl of Tris Wash Buffer of the MSD kit. 25 μl of the MSD sulfo-tag detection antibody solution are added to the wells and incubated for 1 h at ambient temperature, with shaking. Four washes are carried out with 150 μl of Tris Wash Buffer of the MSD kit. 150 μl of Read Buffer of the MSD kit are added to the wells and the plates are read immediately on the S12400 instrument from Meso Scale Discovery. The instrument measures a signal for each well. Wells without cells and containing the lysis buffer serve to determine the background noise that will be subtracted from all the measurements (min). The wells containing cells in the absence of product and in the presence of 0.1% DMSO are considered to be the 100% signal (max). The percentage inhibition is calculated for each concentration of product tested, according to the following formula: (1-((test-min)/(max-min)))×100. […] Two independent experiments make it possible to calculate the mean of the IC50 values.
For the molecule `CC1CN(C(=O)Cc2nc(N3CCOCC3)cc(=O)[nH]2)c2cccc(O)c21` (single isomer, unassigned; (-)) [Example 12c, (−)-2-{2-[4-hydroxy-3-methyl-2,3-dihydro-1H-indol-1-yl]-2-oxoethyl}-6-(morpholin-4-yl)pyrimidin-4(3H)-one], it took 57 nM to reach half-maximal inhibition (IC50). The molecule `CC1Cc2c(F)cccc2N1C(=O)Cc1nc(N2CCOCC2)cc(=O)n1C` (single isomer, unassigned; (-)) [Example 29c, (−)-2-{2-[4-fluoro-2-methyl-2,3-dihydro-1H-indol-1-yl]-2-oxoethyl}-3-methyl-6-(morpholin-4-yl)pyrimidin-4(3H)-one] displayed an IC50 of 53 nM.

Still in this assay, the particulars now being: PC3 cells, 1 to 2 h incubation, P-AKT-S473, absolute IC50, mean of two independent experiments.
Take `CC1Cc2c(Br)cccc2N1C(=O)Cc1nc(N2CCOCC2)cc(=O)n1C` (single isomer, unassigned; (+)) [Example 31c, (+)-2-{2-[4-bromo-2-methyl-2,3-dihydro-1H-indol-1-yl]-2-oxoethyl}-3-methyl-6-(morpholin-4-yl)pyrimidin-4(3H)-one]: it took 36 nM to reach half-maximal inhibition (IC50).

On to `CC1Cc2c(OC(F)F)cccc2N1C(=O)Cc1nc(N2CCOCC2)cc(=O)n1C` (single isomer, unassigned; (+)) [Example 31d, (+)-2-{2-[4-(difluoromethoxy)-2-methyl-2,3-dihydro-1H-indol-1-yl]-2-oxoethyl}-3-methyl-6-(morpholin-4-yl)pyrimidin-4(3H)-one], for which half-maximal inhibition (IC50) required 167 nM. The same measure, in the same setting: in the case of `CC1Cc2c(Cl)cccc2N1C(=O)Cc1nc(N2CCOCC2)cc(=O)n1C` (single isomer, unassigned; (+)) [Example 33c, (+)-2-{2-[4-chloro-2-methyl-2,3-dihydro-1H-indol-1-yl]-2-oxoethyl}-3-methyl-6-(morpholin-4-yl)pyrimidin-4(3H)-one] it was 55 nM.

`O=C(Cc1nc(N2CCOCC2)cc(=O)[nH]1)N1c2ccccc2CC1C1CC1` (single isomer, unassigned; (+)) [Example 34d, (+)-2-[2-(2-cyclopropyl-2,3-dihydroindol-1-yl)-2-oxoethyl]-6-morpholin-4-yl-3H-pyrimidin-4-one] yielded an IC50 of 48 nM. The same measure, in the same setting: under `CC1Cc2c(cccc2C(F)(F)F)N1C(=O)Cc1nc(N2CCOCC2)cc(=O)[nH]1` (single isomer, unassigned; (+)) [Example 36d, (+)-2-{2-[2-methyl-4-(trifluoromethyl)-2,3-dihydro-1H-indol-1-yl]-2-oxoethyl}-6-(morpholin-4-yl)pyrimidin-4(3H)-one] stands 5 nM; under `CC1Cc2c(ccc(F)c2Cl)N1C(=O)Cc1nc(N2CCOCC2)cc(=O)[nH]1` (single isomer, unassigned; (+)) [Example 37c, (+)-2-{2-[4-chloro-5-fluoro-2-methyl-2,3-dihydro-1H-indol-1-yl]-2-oxoethyl}-6-(morpholin-4-yl)pyrimidin-4(3H)-one], 7 nM. In turn, `CCC1Cc2ccccc2N1C(=O)Cc1nc(N2CCOCC2)cc(=O)[nH]1` (single isomer, unassigned; (+)) [Example 42c, (+)-2-[2-(2-ethyl-2,3-dihydroindol-1-yl)-2-oxoethyl]-6-morpholin-4-yl-3H-pyrimidin-4-one] showed an IC50 of 380 nM.

In turn, `CC(F)(C(=O)N1CCc2c(F)cccc21)c1nc(N2CCOCC2)cc(=O)[nH]1` (single isomer, unassigned; (+)) [Example 45c, (+)-2-[2-fluoro-1-(4-fluoro-2,3-dihydro-1H-indol-1-yl)-1-oxopropan-2-yl]-6-(morpholin-4-yl)pyrimidin-4(3H)-one] returned an IC50 of 260 nM. Molecule `CC1Cc2c(Cl)cccc2N1C(=O)Cc1nc(N2CCOCC2)cc(=O)[nH]1` (single isomer, unassigned; (-)) [Example 3c, (−)-2-{2-[4-chloro-2-methyl-2,3-dihydro-1H-indol-1-yl]-2-oxoethyl}-6-(morpholin-4-yl)pyrimidin-4(3H)-one] gave a 50% inhibitory concentration (IC50) of 1 nM. The same measure, in the same setting: in the case of `CC1CN(c2cc(=O)[nH]c(CC(=O)N3CCc4c(F)cccc43)n2)CCO1` (single isomer, unassigned; (-)) [Example 9b, (−)-2-[2-(4-fluoro-2,3-dihydroindol-1-yl)-2-oxoethyl]-6-(2-methylmorpholin-4-yl)-3H-pyrimidin-4-one] it was 156 nM. On to `CC1Cc2c(O)cccc2N1C(=O)Cc1nc(N2CCOCC2)cc(=O)[nH]1` (single isomer, unassigned; (-)) [Example 10c, (−)-2-{2-[4-hydroxy-2-methyl-2,3-dihydro-1H-indol-1-yl]-2-oxoethyl}-6-(morpholin-4-yl)pyrimidin-4(3H)-one], for which the IC50 is 22 nM. Still for that read-out and setting: under `CC1Cc2cc(F)ccc2N1C(=O)Cc1nc(N2CCOCC2)cc(=O)[nH]1` (single isomer, unassigned; (-)) [Example 14c, (−)-2-{2-[5-fluoro-2-methyl-2,3-dihydro-1H-indol-1-yl]-2-oxoethyl}-6-(morpholin-4-yl)pyrimidin-4(3H)-one] stands 2 nM; under `CC1Cc2cc(F)ccc2N1C(=O)Cc1nc(N2CCOCC2)cc(=O)n1C` (single isomer, unassigned; (-)) [Example 16c, (−)-2-{2-[5-fluoro-2-methyl-2,3-dihydro-1H-indol-1-yl]-2-oxoethyl}-3-methyl-6-(morpholin-4-yl)pyrimidin-4(3H)-one], 13 nM; under `CC1Cc2c(Br)cccc2N1C(=O)Cc1nc(N2CCOCC2)c(F)c(=O)[nH]1` (single isomer, unassigned; (-)) [Example 17a, (−)-2-{2-[4-bromo-2-methyl-2,3-dihydro-1H-indol-1-yl]-2-oxoethyl}-5-fluoro-6-(morpholin-4-yl)pyrimidin-4(3H)-one], 45 nM.

For `CC1Cc2c(ccc(F)c2F)N1C(=O)Cc1nc(N2CCOCC2)cc(=O)[nH]1` (single isomer, unassigned; (-)) [Example 18c, (−)-2-{2-[4,5-difluoro-2-methyl-2,3-dihydro-1H-indol-1-yl]-2-oxoethyl}-6-(morpholin-4-yl)pyrimidin-4(3H)-one], half-maximal inhibition (IC50) required 1 nM. Same read-out and setting: in the case of `CC1Cc2c(ccc(F)c2F)N1C(=O)Cc1nc(N2CCOCC2)cc(=O)n1C` (single isomer, unassigned; (-)) [Example 20c, (−)-2-{2-[4,5-difluoro-2-methyl-2,3-dihydro-1H-indol-1-yl]-2-oxoethyl}-3-methyl-6-(morpholin-4-yl)pyrimidin-4(3H)-one] it was 13 nM. `CC1Cc2ccccc2N1C(=O)Cc1nc(N2CCOCC2)cc(=O)[nH]1` (single isomer, unassigned; (-)) [Example 22b, (−)-2-[2-(2-methyl-2,3-dihydroindol-1-yl)-2-oxoethyl]-6-morpholin(D8)-4-yl-3H-pyrimidin-4-one] returned an IC50 of 9 nM. `O=C(Cc1nc(N2CCOC(CO)C2)cc(=O)[nH]1)N1CCc2c(Cl)cccc21` (single isomer, unassigned; (-)) [Example 25b, (−)-2-[2-(4-Chloro-2,3-dihydroindol-1-yl)-2-oxoethyl]-6-(2-hydroxymethylmorpholin-4-yl)-3H-pyrimidin-4-one] gave an IC50 of 27 nM.

Molecule `O=C(Cc1nc(N2CCOCC2)cc(=O)[nH]1)N1c2ccccc2CC1c1ccccc1` (single isomer, unassigned; (-)) [Example 25d, (−)-6-(morpholin-4-yl)-2-{2-oxo-2-[2-phenyl-2,3-dihydro-1H-indol-1-yl]ethyl}pyrimidin-4(3H)-one] yielded an IC50 of 5 nM.

Regarding `CC1Cc2c(Br)cccc2N1C(=O)Cc1nc(N2CCOCC2)cc(=O)[nH]1` (single isomer, unassigned; (-)) [Example 26c, (−)-2-{2-[4-bromo-2-methyl-2,3-dihydro-1H-indol-1-yl]-2-oxoethyl}-6-(morpholin-4-yl)pyrimidin-4(3H)-one], the midpoint of inhibition, the IC50, lay at 3 nM. Take `CC1Cc2c(F)cccc2N1C(=O)Cc1nc(N2CCOCC2)cc(=O)[nH]1` (single isomer, unassigned; (-)) [Example 27c, (−)-2-{2-[4-fluoro-2-methyl-2,3-dihydro-1H-indol-1-yl]-2-oxoethyl}-6-(morpholin-4-yl)pyrimidin-4(3H)-one]: the IC50 amounted to 4 nM. The same measure, in the same setting: in the case of `O=C(Cc1nc(N2CCOCC2)cc(=O)[nH]1)N1c2ccccc2CC1c1ccc(F)cc1` (single isomer, unassigned; (-)) [Example 28d, (−)-2-{2-[2-(4-fluorophenyl)-2,3-dihydro-1H-indol-1-yl]-2-oxoethyl}-6-(morpholin-4-yl)pyrimidin-4(3H)-one] it was 2 nM.

For the origin of these results see patent US9133168B2, “Pyrimidine derivatives, preparation thereof, and pharmaceutical use thereof as akt(pkb) phosphorylation inhibitors” (SANOFI, priority 2010, dated 2015).
